Where two headings read alike, the source gives them in different places.
What was measured:
VEGFR2 [1] = biological target: VEGFR2 (Homo sapiens, UniProt P35968); assay: VEGFR2 biochemical assay; settings: read-out: VEGFR2 AC50; biochemical
[2] = tested on: six prioritized vascular targets (VEGFR2, TIE2, CCL2, PAI-1, CXCL10, uPAR); assay: Vascular bioactivity score (VBS): weighted sum of activity across 23 ToxCast assays; set-up: species or system human; settings: for predicted vascular disruption from VBS rank: among all 311 compounds tested
VEGFR3 = VEGFR3 (Homo sapiens, UniProt P35916); assay: VEGFR3 biochemical assay; settings: read-out: VEGFR3 AC50
PTEN = PTEN (Homo sapiens, UniProt P60484); assay: PTEN biochemical assay; settings: read-out: PTEN AC50
Sequence of PTEN (P60484 whole entry, species assumed): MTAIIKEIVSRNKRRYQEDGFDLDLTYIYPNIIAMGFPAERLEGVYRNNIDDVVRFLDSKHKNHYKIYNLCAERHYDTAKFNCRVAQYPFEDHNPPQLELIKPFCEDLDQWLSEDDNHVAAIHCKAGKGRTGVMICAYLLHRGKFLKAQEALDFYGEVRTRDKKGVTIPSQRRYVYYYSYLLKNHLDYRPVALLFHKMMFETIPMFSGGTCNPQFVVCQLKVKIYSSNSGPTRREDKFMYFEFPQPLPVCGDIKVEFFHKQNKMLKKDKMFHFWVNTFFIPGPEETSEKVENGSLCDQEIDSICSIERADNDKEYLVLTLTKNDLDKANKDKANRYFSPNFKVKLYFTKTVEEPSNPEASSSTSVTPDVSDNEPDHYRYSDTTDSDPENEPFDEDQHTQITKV

EphB2 = biological target: T1, EphB2 (Homo sapiens, UniProt P29323); assay: EphB2 biochemical assay; settings: read-out: EphB2 AC50
T1 sequence (P29323 569-986 isoform P29323-2 limits assumed): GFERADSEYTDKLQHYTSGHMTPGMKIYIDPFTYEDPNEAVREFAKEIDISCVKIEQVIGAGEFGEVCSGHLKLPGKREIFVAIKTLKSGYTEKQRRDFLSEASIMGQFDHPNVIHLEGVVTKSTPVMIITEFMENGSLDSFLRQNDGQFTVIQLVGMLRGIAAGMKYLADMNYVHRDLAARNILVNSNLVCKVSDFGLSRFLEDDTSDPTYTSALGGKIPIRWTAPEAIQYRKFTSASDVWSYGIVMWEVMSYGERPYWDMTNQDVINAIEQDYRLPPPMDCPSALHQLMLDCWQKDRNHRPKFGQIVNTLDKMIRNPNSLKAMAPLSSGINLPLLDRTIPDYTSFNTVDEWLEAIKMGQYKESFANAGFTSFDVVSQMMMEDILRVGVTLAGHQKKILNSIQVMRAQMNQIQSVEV

TIE2 = TIE2 (Homo sapiens, UniProt Q02763); assay: TIE2 cell-free biochemical assay
Text: (§5) The chemical library was run against these assays, as was a repeat of the TIE2 assay from the original data series (Table 2).

VEGFR1 = VEGFR1 (Homo sapiens, UniProt P17948); assay: VEGFR1 biochemical assay; settings: read-out: VEGFR1 AC50
Sequence of VEGFR1 (P17948 27-1338, species assumed): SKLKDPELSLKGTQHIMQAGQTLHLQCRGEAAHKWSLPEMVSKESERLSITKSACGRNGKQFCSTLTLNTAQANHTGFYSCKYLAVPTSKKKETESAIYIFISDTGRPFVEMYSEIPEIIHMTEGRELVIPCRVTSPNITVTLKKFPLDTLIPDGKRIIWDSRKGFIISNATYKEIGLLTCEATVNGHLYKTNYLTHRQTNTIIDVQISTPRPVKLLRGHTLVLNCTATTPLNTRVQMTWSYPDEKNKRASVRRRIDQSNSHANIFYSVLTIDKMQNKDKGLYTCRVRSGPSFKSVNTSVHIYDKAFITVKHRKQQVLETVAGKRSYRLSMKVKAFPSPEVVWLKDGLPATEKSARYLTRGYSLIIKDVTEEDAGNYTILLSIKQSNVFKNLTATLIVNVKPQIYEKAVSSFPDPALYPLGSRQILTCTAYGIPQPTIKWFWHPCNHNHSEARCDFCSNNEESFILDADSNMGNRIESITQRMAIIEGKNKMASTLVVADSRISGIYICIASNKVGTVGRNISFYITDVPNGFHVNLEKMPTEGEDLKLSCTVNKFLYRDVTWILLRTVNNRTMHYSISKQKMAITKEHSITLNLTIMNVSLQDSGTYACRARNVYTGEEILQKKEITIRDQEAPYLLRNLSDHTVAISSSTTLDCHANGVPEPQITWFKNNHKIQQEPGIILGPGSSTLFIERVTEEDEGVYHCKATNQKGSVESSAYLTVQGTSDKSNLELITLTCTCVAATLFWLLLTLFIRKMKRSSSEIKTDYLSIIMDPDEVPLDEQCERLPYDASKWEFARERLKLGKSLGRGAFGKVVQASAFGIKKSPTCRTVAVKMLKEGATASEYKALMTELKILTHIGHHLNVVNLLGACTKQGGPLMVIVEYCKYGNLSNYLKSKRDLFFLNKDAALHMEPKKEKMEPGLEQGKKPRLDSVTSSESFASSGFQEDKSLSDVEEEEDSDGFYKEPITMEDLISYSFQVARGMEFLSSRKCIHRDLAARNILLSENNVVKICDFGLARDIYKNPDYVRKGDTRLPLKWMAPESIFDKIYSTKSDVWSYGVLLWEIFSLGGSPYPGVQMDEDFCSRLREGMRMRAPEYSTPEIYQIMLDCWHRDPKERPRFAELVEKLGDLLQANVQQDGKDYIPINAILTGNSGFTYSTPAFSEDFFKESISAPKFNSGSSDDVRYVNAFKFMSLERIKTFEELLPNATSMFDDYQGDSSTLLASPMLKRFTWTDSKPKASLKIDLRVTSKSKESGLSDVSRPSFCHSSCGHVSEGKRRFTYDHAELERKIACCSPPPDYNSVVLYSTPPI
Text: as §5

PI3Ka = PI3Ka (Homo sapiens, UniProt P42336); assay: PI3Ka biochemical assay
Sequence of PI3Ka (P42336 whole entry): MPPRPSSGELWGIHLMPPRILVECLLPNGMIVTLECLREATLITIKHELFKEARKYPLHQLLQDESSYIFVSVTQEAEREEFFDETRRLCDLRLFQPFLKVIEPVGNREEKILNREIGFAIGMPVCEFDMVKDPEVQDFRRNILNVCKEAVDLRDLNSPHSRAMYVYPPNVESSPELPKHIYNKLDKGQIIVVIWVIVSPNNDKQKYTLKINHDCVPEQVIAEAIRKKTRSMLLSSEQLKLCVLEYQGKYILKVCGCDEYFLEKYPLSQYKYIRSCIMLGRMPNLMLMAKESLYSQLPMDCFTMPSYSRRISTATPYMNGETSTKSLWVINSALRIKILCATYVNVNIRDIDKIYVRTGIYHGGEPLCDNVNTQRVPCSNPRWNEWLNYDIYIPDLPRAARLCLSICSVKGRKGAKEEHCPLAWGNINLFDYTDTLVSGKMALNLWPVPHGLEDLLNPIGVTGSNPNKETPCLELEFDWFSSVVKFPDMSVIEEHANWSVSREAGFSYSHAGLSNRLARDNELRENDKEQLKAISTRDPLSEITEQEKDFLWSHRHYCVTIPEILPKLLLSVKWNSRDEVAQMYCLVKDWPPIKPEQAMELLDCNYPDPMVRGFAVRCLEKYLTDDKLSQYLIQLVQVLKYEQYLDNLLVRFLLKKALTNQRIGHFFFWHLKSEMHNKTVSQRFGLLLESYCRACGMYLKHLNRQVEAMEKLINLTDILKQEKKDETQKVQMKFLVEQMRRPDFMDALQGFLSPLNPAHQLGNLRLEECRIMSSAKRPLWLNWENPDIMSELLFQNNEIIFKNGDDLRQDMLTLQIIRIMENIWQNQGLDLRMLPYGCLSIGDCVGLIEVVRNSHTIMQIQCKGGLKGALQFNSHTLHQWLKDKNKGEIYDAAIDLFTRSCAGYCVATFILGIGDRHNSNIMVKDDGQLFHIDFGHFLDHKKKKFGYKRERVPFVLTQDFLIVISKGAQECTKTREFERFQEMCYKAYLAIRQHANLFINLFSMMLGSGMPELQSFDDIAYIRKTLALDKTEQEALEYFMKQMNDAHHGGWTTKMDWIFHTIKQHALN
Sequence of PI3Ka (P27986 whole entry partner): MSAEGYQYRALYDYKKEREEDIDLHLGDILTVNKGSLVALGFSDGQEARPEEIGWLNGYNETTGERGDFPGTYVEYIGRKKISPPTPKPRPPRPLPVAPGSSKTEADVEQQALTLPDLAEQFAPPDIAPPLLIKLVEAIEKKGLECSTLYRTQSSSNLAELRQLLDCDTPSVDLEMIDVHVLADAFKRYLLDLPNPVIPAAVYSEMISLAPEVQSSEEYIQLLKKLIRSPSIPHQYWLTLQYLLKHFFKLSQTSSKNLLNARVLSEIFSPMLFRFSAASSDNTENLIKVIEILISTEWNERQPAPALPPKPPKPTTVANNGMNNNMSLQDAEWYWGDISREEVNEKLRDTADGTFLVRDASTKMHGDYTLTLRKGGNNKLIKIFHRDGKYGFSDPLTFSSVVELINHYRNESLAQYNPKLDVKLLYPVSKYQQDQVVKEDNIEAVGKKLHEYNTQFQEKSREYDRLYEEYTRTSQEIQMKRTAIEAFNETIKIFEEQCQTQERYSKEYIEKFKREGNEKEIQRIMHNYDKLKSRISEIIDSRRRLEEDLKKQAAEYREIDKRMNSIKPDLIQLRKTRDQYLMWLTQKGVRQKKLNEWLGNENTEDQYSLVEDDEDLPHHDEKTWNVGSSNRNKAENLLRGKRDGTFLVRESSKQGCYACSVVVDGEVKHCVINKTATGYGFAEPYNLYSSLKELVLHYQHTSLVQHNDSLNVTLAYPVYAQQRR

[3] = tested on: placental vascular remodeling; settings: rats; correlated with decreased expression of TIE2 mRNA; ref Ishimura et al. 2009; cited from earlier work
various species = settings: cited from earlier work
murine pregnancy = settings: administered early or late in murine pregnancy, respectively; ref Rutland et al. 2005; cited from earlier work
[4] = tested on: VEGF expression and VEGFR2 phosphorylation; set-up: method as in Joussen et al. 2001; Satchi-Fainaro et al. 2005; settings: ocular vasculature; ref Joussen et al. 2001; Satchi-Fainaro et al. 2005; cited from earlier work
PAI-1 = assay: BioMAP protein readout: PAI-1 up- and down-regulation; format: cell-based, human; settings: for PAI-1 up- and down-regulation LEC: lowest effective concentration
Text: (§1) Source data. […] Assays measured direct interactions between chemicals and molecular targets (receptors, enzymes), as well as downstream effects on reporter gene activity or cellular consequences. […] The perturbation scores are a method of aggregating assays into groups and providing a higher-level view of chemical activity across important signaling pathways.
(§2) Identifying pVDCs. Six assay targets emerged as most relevant to embryonic blood vessel formation based on biological plausibility and prevalence in the VasculoDB literature. These targets have been previously identified, based on murine knockout models or significant associations between biomarker data and adverse pregnancy effects, as critical to proper embryonic blood vessel formation or maternal–fetal placental circulation. In order of descending influence (with corresponding references highlighting their importance to vascular development), these were down-regulation of the receptor tyrosine kinase (RTK) VEGFR2 ([Drake et al. 2007]); inhibition of the enzymatic activity of TIE2, an angiogenic RTK ([Patan 1998]); down-regulation of the proangiogenic chemokine CCL2 ([Keeley et al. 2008]); perturbation of the plasminogen-activating system (PAS) controlling extracellular matrix breakdown via up- or down-regulation of plasminogen activator inhibitor type 1 (PAI-1/SERPINE1) ([Behzadian et al. 2003]); up-regulation of the proinflammatory antiangiogenic chemokine CXCL10 ([Romagnani et al. 2001]); and perturbation of the PAS via up- or down-regulation of urokinase-type plasminogen activator receptor (uPAR/PLAUR) ([D’Alessio and Blasi 2009]).
(§3) As predicted, thalidomide and 5HPP-33 were active across most of the pVDC signature assay targets. […] 5HPP-33 also had effects on uPAR in the endothelial cell system at 10 µM. […] Both compounds, however, fell above the mean VBS cutoff and would be classified as pVDCs based on in vitro activity for vascular targets identified by the ToxCast data and chemicals. […] Thus, our findings with reference compounds known to be antiangiogenic support the contention that VBS is an effective metric for vascular disruption.

CXCL10 = assay: BioMAP protein readout: CXCL10 up-regulation; format: cell-based, human
Text: as §1
(§4) Identifying pVDCs. Six assay targets emerged as most relevant to embryonic blood vessel formation based on biological plausibility and prevalence in the VasculoDB literature. These targets have been previously identified, based on murine knockout models or significant associations between biomarker data and adverse pregnancy effects, as critical to proper embryonic blood vessel formation or maternal–fetal placental circulation. […]

uPAR = assay: BioMAP protein readout: uPAR up- and down-regulation; format: cell-based, human; settings: for uPAR up- and down-regulation LEC: lowest effective concentration
Text: as §1, §2, §3

CCL2 = assay: BioMAP protein readout: CCL2 down-regulation; format: cell-based, human
Text: as §1, §2, §3

[5] = tested on: human umbilical vein endothelial cell; set-up: method as in Noguchi et al. 2005; settings: ref Noguchi et al. 2005; cited from earlier work
rat [6] = settings: in vivo; cited from earlier work
rat [7] = settings: cited from earlier work
mouse = settings: cited from earlier work
rat/rabbit = settings: in vivo; cited from earlier work
VEGFR2 [8] = assay: BioMAP protein readout: VEGFR2 down-regulation; format: cell-based, human; settings: lowest effective concentration
Text: as §1, §4

[9] = read-out: TIE2 AC50, repeat of the TIE2 assay from the original data series
[10] = species and reference printed with each result
[11] = summed activity across 23 assays, 6 assay targets, reference antiangiogenic compounds
[12] = coculture of peripheral blood mononuclear cells and endothelial cells
[13] = ToxRefDB end points, ref U.S. EPA 2010b

Sequence of VEGFR2 (Homo sapiens, UniProt P35968) (P35968 20-1356, species assumed): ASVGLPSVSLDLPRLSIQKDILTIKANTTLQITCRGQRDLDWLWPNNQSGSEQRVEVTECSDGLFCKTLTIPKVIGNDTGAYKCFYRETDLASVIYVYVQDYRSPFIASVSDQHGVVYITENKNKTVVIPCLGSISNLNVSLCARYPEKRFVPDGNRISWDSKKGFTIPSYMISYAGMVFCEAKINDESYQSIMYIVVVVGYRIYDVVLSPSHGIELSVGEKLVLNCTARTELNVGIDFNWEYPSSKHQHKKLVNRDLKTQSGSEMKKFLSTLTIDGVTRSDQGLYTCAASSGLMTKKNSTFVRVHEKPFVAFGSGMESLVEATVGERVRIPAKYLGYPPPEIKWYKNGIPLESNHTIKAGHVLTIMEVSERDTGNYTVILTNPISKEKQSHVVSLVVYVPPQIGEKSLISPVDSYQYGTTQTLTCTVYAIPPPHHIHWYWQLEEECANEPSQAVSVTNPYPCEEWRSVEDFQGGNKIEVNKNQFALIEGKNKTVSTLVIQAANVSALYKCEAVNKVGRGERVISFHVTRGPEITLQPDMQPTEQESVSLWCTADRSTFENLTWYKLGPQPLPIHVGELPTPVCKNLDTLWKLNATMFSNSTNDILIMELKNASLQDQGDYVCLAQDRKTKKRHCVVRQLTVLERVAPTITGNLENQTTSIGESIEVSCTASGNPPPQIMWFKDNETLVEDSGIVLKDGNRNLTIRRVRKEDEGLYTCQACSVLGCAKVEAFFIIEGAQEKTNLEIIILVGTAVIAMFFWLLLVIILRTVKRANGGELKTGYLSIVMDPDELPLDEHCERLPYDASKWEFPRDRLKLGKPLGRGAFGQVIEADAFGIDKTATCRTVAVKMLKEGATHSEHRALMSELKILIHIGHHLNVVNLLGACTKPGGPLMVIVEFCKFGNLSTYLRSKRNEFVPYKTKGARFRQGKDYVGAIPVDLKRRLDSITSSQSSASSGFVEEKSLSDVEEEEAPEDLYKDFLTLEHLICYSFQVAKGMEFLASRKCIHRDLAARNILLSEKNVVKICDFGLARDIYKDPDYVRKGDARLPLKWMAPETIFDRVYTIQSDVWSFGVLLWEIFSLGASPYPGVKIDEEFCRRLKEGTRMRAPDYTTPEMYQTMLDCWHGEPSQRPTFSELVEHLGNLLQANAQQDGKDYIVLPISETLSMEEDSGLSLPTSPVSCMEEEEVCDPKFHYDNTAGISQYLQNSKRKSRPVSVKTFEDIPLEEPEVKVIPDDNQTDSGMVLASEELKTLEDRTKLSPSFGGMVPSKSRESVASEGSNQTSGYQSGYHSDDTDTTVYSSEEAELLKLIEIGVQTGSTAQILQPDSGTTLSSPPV

Mancozeb
AC50 (VEGFR2 [1]): 5.9 µM | VBS ([2]; ToxCast chemicals of Table 2): 3.00 | AC50 (VEGFR3): 1.3 µM | AC50 (PTEN): 0.23 µM | AC50 (EphB2): 21 µM | AC50 (TIE2; [9]): 10.4 µM | AC50 (VEGFR1): 19 µM | PI3Ka AC50 (PI3Ka): 20 µM

Clc1cc2c(cc1Cl)Oc1cc(Cl)c(Cl)cc1O2 [TCDD, 2,3,7,8-tetrachlorodibenzo-p-dioxin]
placental vascular remodeling [3]: suppressed

C=CCOC(Cn1ccnc1)c1ccc(Cl)cc1Cl (stereo not shown) [Imazalil]
VTKB Results (peer-reviewed in vivo studies) (various species; [10]): mammalian developmental toxicity

CO[C@@H]1[C@H](OC(=O)NC(=O)CCl)CC[C@]2(CO2)[C@H]1[C@@]1(C)O[C@@H]1CC=C(C)C [TNP-470, O-[chloroacetyl-carbamoyl]fumagillol]
pregnancy outcome (murine pregnancy): spontaneous resorption and intrauterine growth restriction | effect on VEGF expression and VEGFR2 phosphorylation [4]: significant decrease

O=C1CCC(N2C(=O)c3ccccc3C2=O)C(=O)N1 (stereo not shown) [Thalidomide]
predicted vascular disruption from VBS rank [2]: moderate vascular disruptor | VBS [2, 11]: 1.76 | PAI-1 up-regulation, effective concentration (PAI-1; fibroblasts): 40 µM | PAI-1 up- and down-regulation LEC (PAI-1): 40 µM | effect on CXCL10 signal assay (CXCL10): Neither compound affected | uPAR up-regulation, effective concentration (uPAR; endothelial cells): 2.5 µM | uPAR up- and down-regulation LEC (uPAR): 2.5 µM | CCL2 down-regulation LEC (CCL2; [12]): 0.625 µM | CCL2 down-regulation LEC (CCL2; lowest effective concentration): 0.625 µM | AC50 (TIE2): > 50 µM | AC50 in the TIE2 assay (in words) (TIE2): Neither compound affected the CXCL10 signal assay or produced an AC50 in the TIE2 assay | inhibition of tube formation [5]: ~ 30%

CCC(C)(NC(=O)c1cc(Cl)c(C)c(Cl)c1)C(=O)CCl (stereo not shown) [Zoxamide]
RAT Chronic (rat [6]): No effe ct re corded | RAT Multigenerational (rat [7]; rat, in vivo): No effe ct recorded | MOUSE Chronic (mouse; mouse, in vivo): LungTumors; Lung_ AnyLesion, PreneoplasticL esion, Neoplasti cLesion; Tumorigen | RAT/RABBIT Developmental (rat/rabbit): No effe ct recorded

CC(C)c1cccc(C(C)C)c1N1C(=O)c2ccc(O)cc2C1=O [5HPP-33, 5-hydroxy-2-(2,6-diisopropylphenyl)-1H-isoindole-1,3-dione]
predicted vascular disruption from VBS rank [2]: second highest VBS | VBS [2, 11]: 6.61 | PAI-1 down-regulation LEC (PAI-1; both fibroblasts and bronchial epithelial cells): 20 µM | PAI-1 up- and down-regulation LEC (PAI-1): 20 µM | effect on CXCL10 signal assay (CXCL10): Neither compound affected | uPAR up-regulation, effective concentration (uPAR; bronchial epithelial cells): 1.25 µM | effects on uPAR, effective concentration (uPAR; endothelial cell system): 10 µM | uPAR up- and down-regulation LEC (uPAR): 1.25 µM | CCL2 down-regulation LEC (CCL2; [12]): 0.625 µM | CCL2 down-regulation LEC (CCL2; lowest effective concentration): 0.625 µM | AC50 (TIE2): > 50 µM | AC50 in the TIE2 assay (in words) (TIE2): Neither compound affected the CXCL10 signal assay or produced an AC50 in the TIE2 assay | inhibition of tube formation [5]: ~ 60% | VEGFR2 down-regulation LEC (VEGFR2 [8]): 20 µM

O=S(=O)(O)C(F)(F)C(F)(F)C(F)(F)C(F)(F)C(F)(F)C(F)(F)C(F)(F)C(F)(F)F [Perfluorooctanesulfonic acid]
AC50 (VEGFR2 [1]): 50 µM | VBS ([2]; ToxCast chemicals of Table 2): 3.48 | AC50 (VEGFR3): 8 µM | AC50 (PTEN): 17 µM | AC50 (TIE2; [9]): 4.43 µM | AC50 (VEGFR1): 8.2 µM | PI3Ka AC50 (PI3Ka): 6.5 µM

S=C([S-])NCCNC(=S)[S-].[Mn+2] [Maneb]
AC50 (VEGFR2 [1]): 31 µM | VBS ([2]; ToxCast chemicals of Table 2): 4.69 | AC50 (VEGFR3): 12 µM | AC50 (PTEN): 0.9 µM | AC50 (EphB2): 23 µM | AC50 (TIE2; [9]): 8.08 µM | AC50 (VEGFR1): 4.1 µM

N#Cc1nn(-c2c(Cl)cc(C(F)(F)F)cc2Cl)c(N)c1[S+]([O-])C(F)(F)F (stereo not shown) [Fipronil]
RAT Chronic (rat [6]): KidneyNephropath y; Kidney_ AnyLesion; ThyroidGland_ AnyLesion, PreneoplasticL esion, Neoplasti cLesion; ThyroidProliferativeLesions; ThyroidTumors; Tumorigen | VTKB Results (peer-reviewed in vivo studies) (various species; in vivo): Developmental Neurotoxi city: Zebrafish (Stehr e t al. 2006) | RAT Multigenerational (rat [7]; rat, in vivo): Epididymis; Fertili ty; LitterSize; LiveBir thPND1; Liver; Mating; Ovary; Thyroid; ViabilityPND4 | MOUSE Chronic (mouse; mouse, in vivo): LiverHypertrophy; LiverNec rosis; LiverProli ferativeLes ions; Liver_ AnyLes ion, PreneoplasticL esion | RAT/RABBIT Developmental (rat/rabbit): No effe ct recorded

Metiram-zinc
AC50 (VEGFR2 [1]): 41 µM | VBS ([2]; ToxCast chemicals of Table 2): 4.35 | AC50 (VEGFR3): 22 µM | AC50 (PTEN): 12 µM | AC50 (TIE2; [9]): 15 µM | AC50 (VEGFR1): 6.6 µM | PI3Ka AC50 (PI3Ka): 29 µM

CCc1ccc(C(=O)NN(C(=O)c2cc(C)cc(C)c2)C(C)(C)C)cc1 [Tebufenozide]
MOUSE Chronic (mouse; [13]): Spleen_ AnyLesion

O=C(O)C(F)(F)C(F)(F)C(F)(F)C(F)(F)C(F)(F)C(F)(F)C(F)(F)F [Perfluorooctanoic acid]
VBS ([2]; ToxCast chemicals of Table 2): 3.04 | VTKB Results (peer-reviewed in vivo studies) (various species; [10]): mammalian developmental toxicity | AC50 (TIE2): 31.9 µM

CC(C)N1C(=O)c2ccccc2NS1(=O)=O [Bentazone]
RAT Multigenerational (rat [7]; [13]): Kidney; Liver
